Like-named read-outs stand apart in the source and are kept apart here.
Columns and labels:
Assay type in all cases: in vivo
[1] = system: Dog Delayed Cerebral Vasospasm Model; experiment: Effect on dog delayed cerebral vasospasm model (basilar artery diameter by angiography); details: seventh day, separate administration
Method: An adult mongrel dog was anesthetized with pentobarbital and 5 ml of autologous blood was injected into cisterna magna (on the first day). On the third day, 5 ml of autologous blood was injected into cisterna magna under thiamyral anesthesia. Before the injection of autologous blood on the first day and on the seventh day, angiographin was injected into vertebral artery, followed by photographing blood vessel of basilar artery. […] As a control, physiological saline was administered into vein over 30 minutes continuously. After the administration of each drug, the blood vessel was photographed to measure the diameter of basilar artery.

[2] = system: Vasopressin Induced Rat Angina Pectoris Model; details: half an hour before vasopressin 0.5 U/kg i.v., separate administration
Method: Half an hour later, vasopressin (0.5 U/kg) was intravenously administered. The ST segment depression was used as an index showing the degree of a myocardial ischemia. […] ST segment in an electrocardiogram was measured for comparison with a ST segment before the vasopressin administration. […] In addition, occurrence of a myocardial ischemia was observed.

[3] = system: Rat Cerebral Infarction Model; experiment: Inhibitory effect of cerebral infarction in rat cerebral infarction model (brain microthromboembolism); details: 10 mg/kg intraperitoneally once a day until the fourth day, separate administration
Method: A rat brain microthromboembolism model described in Stroke, 31, 2245-2255 (2000) was used as a cerebral infarction model. […] After the model was prepared, each drug was administered once a day until the fourth day. On the fifth day, the brain was extracted and the size of a cerebral infarction was histopathologically measured.

## COCCOC(=O)C1=C(C)NC(C)=C(C(=O)OC(C)C)C1c1cccc([N+](=O)[O-])c1 (centres unmarked) [Nimodipine, nimodipine]
[1]; 0.1 mg/kg into vein over 30 minutes
  Basilar artery diameter (diameter before blood injection: 100%): 55.7%
[1]; 1 mg/kg into vein over 30 minutes
  Basilar artery diameter (diameter before blood injection: 100%): 58.0%

## CC(C)NCC(O)COc1cccc2ccccc12 (centres unmarked) [propranolol]
[2]; propranolol 100 mg/kg orally
  improvement of ST segment depression (index of myocardial ischemia): not improved

## O=C([O-])/C=C/c1ccc(Cn2ccnc2)cc1.[Na+] [sodium ozagrel]
[3]
  inhibition of cerebral infarction (size measured histopathologically, fifth day): not inhibited

## isosorbide nitrate
[2]; isosorbide nitrate 30 mg/kg orally
  improvement of ST segment depression (index of myocardial ischemia): not improved
